Test results taken from ChEMBL document CHEMBL5046266, “Synthesis and Evaluation of Structurally Diverse C-2-Substituted Thienopyrimidine-Based Inhibitors of the Human Geranylgeranyl Pyrophosphate Synthase” (J Med Chem, 2022).

Experiments:
[1] = Metabolic stability in rat microsomes assessed as intrinsic clearance; format: ADME, Microsome; settings: read-out: CLH
[2] = Hepatotoxicity in C57BL/6 mouse assessed as effect on bilirubin level at 5 mg/kg, iv administered measured after 7 days; format: toxicity, organism-based; settings: in vivo, 168 h, time 7 day
[3] = Hepatotoxicity in C57BL/6 mouse assessed as effect on alkaline phosphatase level at 5 mg/kg, iv administered measured after 7 days; format: toxicity, organism-based; settings: in vivo, 168 h, time 7 day
[4] = Hepatotoxicity in C57BL/6 mouse assessed as effect on amylase level at 0.5 mg/kg, iv administered measured after 7 days; format: toxicity, organism-based; settings: in vivo, 168 h, time 7 day
[5] = Hepatotoxicity in C57BL/6 mouse assessed as effect on alanine aminotransferase level at 0.5 mg/kg, iv administered measured after 7 days; format: toxicity, organism-based; settings: in vivo, 168 h, time 7 day
[6] = Hepatotoxicity in C57BL/6 mouse assessed as effect on amylase level at 10 mg/kg, iv administered measured after 7 days; format: toxicity, organism-based; settings: in vivo, 168 h, time 7 day
[7] = Hepatotoxicity in C57BL/6 mouse assessed as effect on bilirubin level at 10 mg/kg, iv administered measured after 7 days; format: toxicity, organism-based; settings: in vivo, 168 h, time 7 day
[8] = Metabolic stability in human microsomes assessed as intrinsic clearance; format: ADME, Microsome; settings: read-out: CLH
[9] = Hepatotoxicity in C57BL/6 mouse assessed as effect on alkaline phosphatase level at 1 mg/kg, iv administered measured after 7 days; format: toxicity, organism-based; settings: in vivo, 168 h, time 7 day
[10] = MRT in CD rat plasma at 3 mg/kg/day, IV administered measured up to 24 hrs by LC-MS/MS analysis; format: ADME, organism-based
[11] = Hepatotoxicity in C57BL/6 mouse assessed as effect on amylase level at 5 mg/kg, iv administered measured after 7 days; format: toxicity, organism-based; settings: in vivo, 168 h, time 7 day
Mononuclear cell line [12] = format: toxicity, cell-based; settings: human, 72 h, 0.01 µM, dose 10 nM
[13] = Toxicity in C57BL/6 mouse assessed as effect on aspartate aminotransferase level in serum at 5 mg/kg, iv measured after 7 days; format: organism-based; settings: in vivo, 168 h, time 7 day
[14] = Hepatotoxicity in C57BL/6 mouse assessed as effect on gamma glutamyl transferase level at 5 mg/kg, iv administered measured after 7 days; format: toxicity, organism-based; settings: in vivo, 168 h, time 7 day
[15] = Hepatotoxicity in C57BL/6 mouse assessed as effect on aspartate aminotransferase level at 5 mg/kg, iv administered measured after 7 days; format: toxicity, organism-based; settings: in vivo, 168 h, time 7 day
[16] = Metabolic stability in mouse microsomes assessed as intrinsic clearance; format: ADME, Microsome
[17] = Hepatotoxicity in C57BL/6 mouse assessed as effect on bilirubin level at 0.5 mg/kg, iv administered measured after 7 days; format: toxicity, organism-based; settings: in vivo, 168 h, time 7 day
Mononuclear cell line [18] = format: toxicity, cell-based; settings: human, 72 h, 0.001 µM, dose 1 nM
[19] = AUC (0 to infinity) in CD rat plasma at 3 mg/kg/day, IV administered measured up to 24 hrs by LC-MS/MS analysis; format: ADME, organism-based; parameters: route intravenous, dose 3 mg/kg/day, time <=24
[20] = Volume of distribution at steady state in CD rat at 3 mg/kg/day, IV administered measured up to 24 hrs by LC-MS/MS analysis; format: ADME, organism-based; settings: in vivo, read-out: Vdss
Mononuclear cell line [21] = format: toxicity, cell-based; settings: human, 72 h, 1 µM
[22] = Hepatotoxicity in C57BL/6 mouse assessed as effect on aspartate aminotransferase level at 1 mg/kg, iv administered measured after 7 days; format: toxicity, organism-based; settings: in vivo, 168 h, time 7 day
Mononuclear cell line [23] = format: toxicity, cell-based; settings: human, 72 h, 10 µM
[24] = Hepatotoxicity in C57BL/6 mouse assessed as effect on gamma glutamyl transferase level at 1 mg/kg, iv administered measured after 7 days; format: toxicity, organism-based; settings: in vivo, 168 h, time 7 day
[25] = Hepatotoxicity in C57BL/6 mouse assessed as effect on alanine aminotransferase level at 1 mg/kg, iv administered measured after 7 days; format: toxicity, organism-based; settings: in vivo, 168 h, time 7 day
[26] = Terminal half life in CD rat at 3 mg/kg/day, IV administered measured up to 24 hrs by LC-MS/MS analysis; format: ADME, organism-based; settings: in vivo, read-out: beta t1/2 (converted)
[27] = Hepatotoxicity in C57BL/6 mouse assessed as effect on bilirubin level at 1 mg/kg, iv administered measured after 7 days; format: toxicity, organism-based; settings: in vivo, 168 h, time 7 day
[28] = Hepatotoxicity in C57BL/6 mouse assessed as effect on amylase level at 1 mg/kg, iv administered measured after 7 days; format: toxicity, organism-based; settings: in vivo, 168 h, time 7 day
[29] = Hepatotoxicity in C57BL/6 mouse assessed as effect on gamma glutamyl transferase level at 10 mg/kg, iv administered measured after 7 days; format: toxicity, organism-based; settings: in vivo, 168 h, time 7 day
[30] = Hepatotoxicity in C57BL/6 mouse assessed as effect on alkaline phosphatase level at 10 mg/kg, iv administered measured after 7 days; format: toxicity, organism-based; settings: in vivo, 168 h, time 7 day
[31] = Hepatotoxicity in C57BL/6 mouse assessed as effect on alanine aminotransferase level at 5 mg/kg, iv administered measured after 7 days; format: toxicity, organism-based; settings: in vivo, 168 h, time 7 day
[32] = Hepatotoxicity in C57BL/6 mouse assessed as effect on aspartate aminotransferase level at 10 mg/kg, iv administered measured after 7 days; format: toxicity, organism-based; settings: in vivo, 168 h, time 7 day
[33] = Intrinsic clearance in CD rat plasma at 3 mg/kg/day, IV administered measured up to 24 hrs by LC-MS/MS analysis; format: ADME, organism-based; settings: in vivo
[34] = AUC (0 to t) in CD rat plasma at 3 mg/kg/day, IV administered measured up to 24 hrs by LC-MS/MS analysis; format: ADME, organism-based; parameters: route intravenous, dose 3 mg/kg/day, time <=24
[35] = Toxicity in C57BL/6 mouse assessed as effect on aspartate aminotransferase level in serum at 0.5 mg/kg, iv measured after 7 days; format: organism-based; settings: in vivo, 168 h, time 7 day
[36] = Hepatotoxicity in C57BL/6 mouse assessed as effect on aspartate aminotransferase level at 0.5 mg/kg, iv administered measured after 7 days; format: toxicity, organism-based; settings: in vivo, 168 h, time 7 day
[37] = Hepatotoxicity in C57BL/6 mouse assessed as effect on gamma glutamyl transferase level at 0.5 mg/kg, iv administered measured after 7 days; format: toxicity, organism-based; settings: in vivo, 168 h, time 7 day
[38] = Hepatotoxicity in C57BL/6 mouse assessed as effect on alkaline phosphatase level at 0.5 mg/kg, iv administered measured after 7 days; format: toxicity, organism-based; settings: in vivo, 168 h, time 7 day
[39] = Hepatotoxicity in C57BL/6 mouse assessed as effect on alanine aminotransferase level at 10 mg/kg, iv administered measured after 7 days; format: toxicity, organism-based; settings: in vivo, 168 h, time 7 day

microsomal CLint [1]: 13 µL/min/mg | microsomal CLint [8]: 7 µL/min/mg | MRT [10]: 6.21 h | CLH [16]: 27 µL/min/mg | AUC(0-inf) [19]: 155 µM·h | Vd [20]: 0.211 L/kg | half-life [26]: 5.34 h | CL [33]: 0.567 mL/min/kg | AUC(0-t) at 24 h [34]: 149 µM·h
SMILES: COc1ccc(NC(=O)c2cccc(-c3nc(NC(P(=O)(O)O)P(=O)(O)O)c4ccsc4n3)c2)cc1F
Activity [2]: Non-Toxic | Activity [3]: Non-Toxic | Activity [4]: Non-Toxic | Activity [5]: Non-Toxic | Activity [6]: Non-Toxic | Activity [7]: Non-Toxic | Activity [9]: Non-Toxic | Activity [11]: Non-Toxic | Activity (Mononuclear cell line [12]): 77.2% | Activity [13]: Non-Toxic | Activity [14]: Non-Toxic | Activity [15]: Non-Toxic | Activity [17]: Non-Toxic | Activity (Mononuclear cell line [18]): 79.7% | Activity (Mononuclear cell line [21]): 17.8% | Activity [22]: Non-Toxic | Activity (Mononuclear cell line [23]): 21.3% | Activity [24]: Non-Toxic | Activity [25]: Non-Toxic | Activity [27]: Non-Toxic | Activity [28]: Non-Toxic | Activity [29]: Non-Toxic | Activity [30]: Non-Toxic | Activity [31]: Non-Toxic | Activity [32]: Non-Toxic | Activity [35]: Non-Toxic | Activity [36]: Non-Toxic | Activity [37]: Non-Toxic | Activity [38]: Non-Toxic | Activity [39]: Non-Toxic
